Data from ChEMBL document CHEMBL1135808, “A new type of mixed anhydride and its applications to the synthesis of 7-substituted 8-chloro-5,5-dioxoimidazo[1,2-b][1,4,2]benzodithiazines with in vitro antitumor activity” (2002).

Key:
[1] = system: MCF7; test: Log of molar concentration leading to 50% cell death against breast cancer MCF 7 cell line was reported; format: functional; conditions: Homo sapiens, read-out: Log LC50 (the source's name) (converted)
[2] = system: 786-0; test: In vitro total growth inhibition against renal cancer […] cell lines was reported.; format: functional; conditions: Homo sapiens, read-out: Log TGI (converted)
[3] = system: T47D; test: In vitro growth inhibition against breast cancer […] cell line was reported.; format: functional; conditions: Homo sapiens
[4] = system: T47D; test: In vitro total growth inhibition against breast cancer […] cell lines was reported.; format: functional; conditions: Homo sapiens, read-out: Log TGI (converted)
[5] = system: M14; test: Log of molar concentration leading to 50% cell death against melanoma M14 cell line was reported; format: functional; conditions: Homo sapiens, read-out: Log LC50 (the source's name) (converted)
[6] = system: SK-MEL-5; test: In vitro total growth inhibition against melanoma SK-MEL-5 cell lines was reported.; format: functional; conditions: Homo sapiens, read-out: Log TGI (converted)
[7] = system: HOP-92; test: In vitro total growth inhibition against non-small-cell lung cancer HOP-92 cell lines was reported.; conditions: Homo sapiens, read-out: Log TGI (converted)
[8] = system: RPMI-8226; test: In vitro growth inhibition against leukemia […] cell line was reported.; format: functional; conditions: Homo sapiens
[9] = system: OVCAR-3; test: Log of molar concentration leading to 50% cell death against ovarian cancer OVCAR-3 cell line was reported; format: functional; conditions: Homo sapiens, read-out: Log LC50 (the source's name) (converted)
[10] = system: MDA-N; test: In vitro growth inhibition against breast cancer MDA-N cell line was reported.; format: functional; conditions: Homo sapiens
[11] = system: U-251; test: In vitro growth inhibition against CNS cancer U251 cell line was reported.; format: functional; conditions: Homo sapiens
[12] = system: Tumor Cell line; test: In vitro total growth inhibition for 50 cell lines was reported as log of molar concentration; format: functional, Homo sapiens
[13] = system: SF-539; test: Log of molar concentration leading to 50% cell death against CNS cancer SF-539 cell line was reported; format: functional; conditions: Homo sapiens, read-out: Log LC50 (the source's name) (converted)
[14] = system: TK-10; test: In vitro growth inhibition against renal cancer TK-10 cell line was reported.; format: functional; conditions: Homo sapiens
[15] = system: OVCAR-3; test: In vitro growth inhibition against ovarian cancer OVCAR-3 cell line was reported.; format: functional; conditions: Homo sapiens
[16] = system: NCI-H522; test: Log of molar concentration leading to 50% cell death against non-small-cell lung cancer NCI-522 cell line was reported; format: functional; conditions: Homo sapiens, read-out: Log LC50 (the source's name) (converted)
[17] = system: SR; test: In vitro total growth inhibition against leukemia SR cell lines was reported.; format: functional; conditions: Homo sapiens, read-out: Log TGI (converted)
[18] = system: SK-MEL-2; test: Log of molar concentration leading to 50% cell death against melanoma SK-MEL-2 cell line was reported; format: functional; conditions: Homo sapiens, read-out: Log LC50 (the source's name) (converted)
[19] = system: SF-295; test: In vitro growth inhibition against CNS cancer SF-295 cell line was reported.; format: functional; conditions: Homo sapiens
[20] = system: NCI/ADR-RES; test: In vitro growth inhibition against breast cancer NCI/ADR-RES cell line was reported.; format: functional; conditions: Homo sapiens
[21] = system: MOLT-4; test: In vitro growth inhibition against leukemia MOLT-4 cell line was reported.; format: functional; conditions: Homo sapiens
[22] = system: SNB-75; test: In vitro growth inhibition against CNS cancer SNB-75 cell line was reported.; format: functional; conditions: Homo sapiens
[23] = system: COLO 205; test: Log of molar concentration leading to 50% cell death against colon cancer COLO 205 cell line was reported; format: functional; conditions: Homo sapiens, read-out: Log LC50 (the source's name) (converted)
[24] = system: MCF7; test: In vitro growth inhibition against breast cancer MCF 7 cell line was reported.; format: functional; conditions: Homo sapiens
[25] = system: SF-295; test: In vitro total growth inhibition against CNS cancer SF-295 cell lines was reported.; format: functional; conditions: Homo sapiens, read-out: Log TGI (converted)
[26] = system: SF-295; test: Log of molar concentration leading to 50% cell death against CNS cancer SF-295 cell line was reported; format: functional; conditions: Homo sapiens, read-out: Log LC50 (the source's name) (converted)
[27] = system: TK-10; test: Log of molar concentration leading to 50% cell death against renal cancer TK-10 cell line was reported; format: functional; conditions: Homo sapiens, read-out: Log LC50 (the source's name) (converted)
[28] = system: SR; test: In vitro growth inhibition against leukemia SR cell line was reported.; format: functional; conditions: Homo sapiens
[29] = system: UACC-62; test: In vitro growth inhibition against melanoma UACC-62 cell line was reported.; format: functional; conditions: Homo sapiens
[30] = system: A549; test: In vitro total growth inhibition against non-small-cell lung cancer A 549/ATCC cell lines was reported.; format: functional; conditions: Homo sapiens, read-out: Log TGI (converted)
[31] = system: HL-60; test: In vitro total growth inhibition against leukemia HL-60(TB) cell lines was reported.; format: functional; conditions: Homo sapiens, read-out: Log TGI (converted)
[32] = system: U-251; test: In vitro total growth inhibition against CNS cancer U251 cell lines was reported.; format: functional; conditions: Homo sapiens, read-out: Log TGI (converted)
[33] = system: OVCAR-4; test: In vitro growth inhibition against ovarian cancer OVCAR-4 cell line was reported.; format: functional; conditions: Homo sapiens
[34] = system: CCRF-CEM; test: In vitro growth inhibition against leukemia CCRF-CEM cell line was reported.; format: functional; conditions: Homo sapiens
[35] = system: UO-31; test: In vitro total growth inhibition against renal cancer UO-31 cell lines was reported.; format: functional; conditions: Homo sapiens, read-out: Log TGI (converted)
[36] = system: OVCAR-8; test: Log of molar concentration leading to 50% cell death against ovarian cancer OVCAR-8 cell line was reported; format: functional; conditions: Homo sapiens, read-out: Log LC50 (the source's name) (converted)
[37] = system: RXF 393; test: In vitro growth inhibition against renal cancer RXF 393 cell line was reported.; format: functional; conditions: Homo sapiens
[38] = system: RPMI-8226; test: Log of molar concentration leading to 50% cell death against leukemia […] cell line was reported; format: functional; conditions: Homo sapiens, read-out: Log LC50 (the source's name) (converted)
[39] = system: RXF 393; test: Log of molar concentration leading to 50% cell death against renal cancer RXF 393 cell line was reported; format: functional; conditions: Homo sapiens, read-out: Log LC50 (the source's name) (converted)
[40] = system: Tumor Cell line; test: Log of molar concentration leading to 50% cell death was reported; format: functional; conditions: Homo sapiens, read-out: Log LC50 (the source's name) (converted)
[41] = species on record: Homo sapiens; test: In vitro total growth inhibition against non-small-cell lung cancer EKVX cell lines was reported.; format: functional; conditions: read-out: Log TGI (converted)
[42] = system: UACC-257; test: Log of molar concentration leading to 50% cell death against melanoma UACC-257 cell line was reported; format: functional; conditions: Homo sapiens, read-out: Log LC50 (the source's name) (converted)
[43] = system: ACHN; test: In vitro growth inhibition against renal cancer ACHN cell line was reported.; format: functional; conditions: Homo sapiens
[44] = system: NCI-H23; test: In vitro total growth inhibition against non-small-cell lung cancer NCI-H23 cell lines was reported.; format: functional; conditions: Homo sapiens, read-out: Log TGI (converted)
[45] = system: UACC-257; test: In vitro total growth inhibition against melanoma UACC-257 cell line was reported.; format: functional; conditions: Homo sapiens
[46] = system: LOX IMVI; test: In vitro total growth inhibition against melanoma LOX IMVI cell lines was reported.; format: functional; conditions: Homo sapiens, read-out: Log TGI (converted)
[47] = system: TK-10; test: In vitro total growth inhibition against renal cancer TK-10 cell lines was reported.; format: functional; conditions: Homo sapiens, read-out: Log TGI (converted)
[48] = system: A549; test: In vitro growth inhibition against non-small-cell lung cancer A 549/ATCC cell line was reported.; format: functional; conditions: Homo sapiens
[49] = system: RPMI-8226; test: In vitro total growth inhibition against leukemia […] cell lines was reported.; format: functional; conditions: Homo sapiens, read-out: Log TGI (converted)
[50] = system: M14; test: In vitro growth inhibition against melanoma M14 cell line was reported.; format: functional; conditions: Homo sapiens
[51] = system: CAKI-1; test: In vitro total growth inhibition against renal cancer CAKI-1cell lines was reported.; format: functional; conditions: Homo sapiens, read-out: Log TGI (converted)
[52] = system: EKVX; test: In vitro growth inhibition against non-small-cell lung cancer EKVX cell line was reported.; format: functional; conditions: Homo sapiens
[53] = system: KM12; test: In vitro total growth inhibition against colon cancer KM12 cell lines was reported.; format: functional; conditions: Homo sapiens, read-out: Log TGI (converted)
[54] = system: SF-539; test: In vitro total growth inhibition against CNS cancer SF-539 cell lines was reported.; format: functional; conditions: Homo sapiens, read-out: Log TGI (converted)
[55] = system: HL-60; test: Log of molar concentration leading to 50% cell death against leukemia HL-60(TB) cell line was reported; format: functional; conditions: Homo sapiens, read-out: Log LC50 (the source's name) (converted)
[56] = system: NCI-H322M; test: In vitro growth inhibition against non-small-cell lung cancer […] cell line was reported.; format: functional; conditions: Homo sapiens
[57] = system: NCI-H46; test: In vitro growth inhibition against non-small-cell lung cancer […] cell line was reported.; format: functional; conditions: Homo sapiens
[58] = system: 786-0; test: Log of molar concentration leading to 50% cell death against renal cancer […] cell line was reported; format: functional; conditions: Homo sapiens, read-out: Log LC50 (the source's name) (converted)
[59] = system: PC-3; test: Log of molar concentration leading to 50% cell death against prostate cancer PC-3 cell line was reported; format: functional; conditions: Homo sapiens, read-out: Log LC50 (the source's name) (converted)
[60] = system: HCT-116; test: In vitro growth inhibition against colon cancer HCT116 cell line was reported.; format: functional; conditions: Homo sapiens
[61] = system: CAKI-1; test: In vitro growth inhibition against renal cancer CAKI-1 cell line was reported.; format: functional; conditions: Homo sapiens

Molecule `O=C(Nc1cccc2nsnc12)c1cc2c(cc1Cl)Sc1nccn1S2(=O)=O` has a CC50 [1] of 6.61 µM, a TGI [2] of 30.2 µM and a GI50 [3] of 1700 nM. The TGI [4] was 5.75 µM, the CC50 [5] was 69.2 µM and the TGI [6] was 33.9 µM. The TGI [7] was 25.7 µM, the GI50 [8] was 2090 nM and the CC50 [9] was 6.61 µM. The GI50 [10] was 13.5 µM, the GI50 [11] was 4.57 µM and the “Log GTI” value [12] was -4.31. For the same molecule, the CC50 [13] was 15.5 µM, the GI50 [14] was 10.5 µM and the GI50 [15] was 1780 nM. The CC50 [16] was 89.1 µM, the TGI [17] was 4.79 µM and the CC50 [18] was 64.6 µM. It also gave a GI50 [19] of 11.2 µM, a GI50 [20] of 17.8 µM and a GI50 [21] of 2750 nM. The GI50 [22] was 3.89 µM, the CC50 [23] was 56.2 µM and the GI50 [24] was 1740 nM. For the same molecule, the TGI [25] was 25.1 µM, the CC50 [26] was 55 µM and the CC50 [27] was 50.1 µM. It also gave a GI50 [28] of 2000 nM, a GI50 [29] of 5.37 µM and a TGI [30] of 38.9 µM. For the same molecule, the TGI [31] was 3.72 µM, the TGI [32] was 15.8 µM and the GI50 [33] was 2750 nM. It also gave a GI50 [34] of 3.24 µM, a TGI [35] of 4.37 µM and a CC50 [36] of 38 µM. The GI50 [37] was 4.68 µM, the CC50 [38] was 7.94 µM and the CC50 [39] was 56.2 µM. It also gave a CC50 [40] of 95.5 µM, a TGI [41] of 4.68 µM and a CC50 [42] of 6.31 µM. The GI50 [43] was 12.6 µM, the TGI [44] was 25.1 µM and the GI50 [45] was 1820 nM. It also gave a TGI [46] of 40.7 µM, a TGI [47] of 22.9 µM and a GI50 [48] of 12.6 µM. For the same molecule, the TGI [49] was 4.07 µM, the GI50 [50] was 17.4 µM and the TGI [51] was 19.1 µM. The GI50 [52] was 2290 nM, the TGI [53] was 3.89 µM and the TGI [54] was 4.9 µM. It also gave a CC50 [55] of 7.41 µM, a GI50 [56] of 1780 nM and a GI50 [57] of 2040 nM. The CC50 [58] was 55 µM, the CC50 [59] was 6.46 µM and the GI50 [60] was 2570 nM. The GI50 [61] was 4.79 µM.
